Literature values as cited in US8198478B2 (Ajinomoto Co., Inc., priority 2007, dated 2012).

Settings: literature value (Kagaku Binran, 1993)

Compound: N[C@@H](CCC(=O)O)C(=O)O [glutamic acid]
- hydrogen ion dissociation constant pk1: 2.19
- hydrogen ion dissociation constant pk2: 4.25
- hydrogen ion dissociation constant pk3: 9.67
